Measurements reported in PMC2662861, “An unexpected phosphate binding site in Glyceraldehyde 3-Phosphate Dehydrogenase: Crystal structures of apo, holo and ternary complex of Cryptosporidium parvum enzyme” (BMC Structural Biology, 2009).

Target: T1, CpGAPDH (Cryptosporidium parvum glyceraldehyde 3-phosphate dehydrogenase) (Cryptosporidium parvum, UniProt Q7YYQ9)
T1 construct: gene cgd6_3790; recombinant, N-terminal hexa-histidine tag kept, expressed in E. coli; homotetramer
Assay: X-ray crystal structure, […] Å, co-crystallized
Assay type: binding
Conditions: holoenzyme; 2 mM NAD; pH 7.5; NAD in all four subunits

T1 sequence (Q7YYQ9 1-339): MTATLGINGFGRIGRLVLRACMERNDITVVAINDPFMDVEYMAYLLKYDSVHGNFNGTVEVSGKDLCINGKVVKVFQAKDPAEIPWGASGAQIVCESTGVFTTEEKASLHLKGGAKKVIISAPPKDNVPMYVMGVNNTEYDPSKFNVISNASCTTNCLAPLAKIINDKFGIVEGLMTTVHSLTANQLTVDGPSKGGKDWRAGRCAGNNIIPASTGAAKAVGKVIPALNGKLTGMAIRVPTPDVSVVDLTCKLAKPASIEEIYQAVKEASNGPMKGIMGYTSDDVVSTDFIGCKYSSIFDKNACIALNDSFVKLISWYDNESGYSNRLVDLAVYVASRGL

For NC(=O)c1ccc[n+]([C@@H]2O[C@H](COP(=O)(O)OP(=O)(O)OC[C@H]3O[C@@H](n4cnc5c(N)ncnc54)[C@H](O)[C@@H]3O)[C@@H](O)[C@H]2O)c1 [NAD], the “X-ray crystal structure, 2.0 Å, co-crystallized” value was “The holoenzyme form of CpGAPDH contains one NAD molecule in each subunit”.
